Laboratory results taken from PubChem BioAssay AID330 (DTP/NCI, 2004).
“And” between values parts separate entries of the source, which are not always exact repeats. Equal entries are not always repeated. Toxic doses and inconclusive results are not listed. How the source made its calls: active means survival T/C of 150% or more; inactive means T/C below 125% in these data.

Tested on: P388 leukemia ip, CD2F1 mice, survival T/C
Assay: NCI In Vivo Anticancer Drug Screen. Data for tumor model P388 Leukemia (intraperitoneal) in CD2F1 (CDF1) mice
Conditions: endpoint: median survival time, higher = longer survival
Method in brief: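 Mice carrying the transplanted tumor received test compound or vehicle. Survival was recorded in each group, and the value is the treated-group measurement divided by that of the vehicle-treated control group.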

[1] = dose: 25.0 mg/kg/injection, schedule: Q01DX009 (ip), vehicle: Klucel (hydroxypropylcellulose) (HPC)
[2] = dose: 50.0 mg/kg/injection, schedule: Q01DX009 (ip), vehicle: Klucel (hydroxypropylcellulose) (HPC)
[3] = dose: 100.0 mg/kg/injection, schedule: Q01DX009 (ip), vehicle: Klucel (hydroxypropylcellulose) (HPC)
[4] = dose: 200.0 mg/kg/injection, schedule: Q01DX009 (ip), vehicle: Klucel (hydroxypropylcellulose) (HPC)
[5] = dose: 50.0 mg/kg/injection, schedule: Q01DX009 (ip), vehicle: saline with Tween-80
[6] = dose: 100.0 mg/kg/injection, schedule: Q01DX009 (ip), vehicle: saline with Tween-80
[7] = dose: 60.0 mg/kg/injection, schedule: Q01DX005 (ip), vehicle: saline with Tween-80
[8] = dose: 120.0 mg/kg/injection, schedule: Q01DX005 (ip), vehicle: saline with Tween-80
[9] = dose: 240.0 mg/kg/injection, schedule: Q01DX005 (ip), vehicle: saline with Tween-80

Measured: T/C

CN(C)Cc1cnccc1I
inactive: dose: 50.0 mg/kg/injection, schedule: Q01DX005 (ip), vehicle: suspension in saline 101 % of control | dose: 100.0 mg/kg/injection, schedule: Q01DX005 (ip), vehicle: suspension in saline 104 % of control | dose: 200.0 mg/kg/injection, schedule: Q01DX005 (ip), vehicle: suspension in saline 108 % of control

Cc1c([N+](=O)[O-])oc2c1C(=O)N([N+](=O)[O-])CCC2
inactive: dose: 100.0 mg/kg/injection, schedule: Q04DX003 (ip), vehicle: Klucel (hydroxypropylcellulose) (HPC) 114 % of control

Cc1ccc(NC(=S)SCc2ccc3c(c2)OCO3)cc1Br
inactive: dose: 12.5 mg/kg/injection, schedule: Q01DX009 (ip), vehicle: Klucel (hydroxypropylcellulose) (HPC) 122 % of control | [1] 102 % of control | [2] 120 % of control | dose: 50.0 mg/kg/injection, schedule: Q01DX009 (ip), vehicle: suspension in saline 104 % of control | [3] 115 % of control | dose: 100.0 mg/kg/injection, schedule: Q01DX009 (ip), vehicle: suspension in saline 111 % of control | [4] 116 % of control | dose: 200.0 mg/kg/injection, schedule: Q01DX009 (ip), vehicle: suspension in saline 104 % of control

CC(=O)Nc1ccc(S(=O)(=O)/N=C2\C=CC(=O)c3ccccc32)cc1
inactive: dose: 25.0 mg/kg/injection, schedule: Q01DX009 (ip), vehicle: saline with Tween-80 105 % of control | [5] 115 % of control | [6] 110 % of control

CC(O)CCC1CCCCN1 (stereo not drawn)
inactive: dose: 50.0 mg/kg/injection, schedule: Q01DX005 (ip), vehicle: saline 109 % of control | dose: 100.0 mg/kg/injection, schedule: Q01DX005 (ip), vehicle: saline 100 % of control | dose: 200.0 mg/kg/injection, schedule: Q01DX005 (ip), vehicle: saline 101 % of control

COc1ccc(C(=O)NO)cc1
inactive: [5] 109 % of control | [6] 102 % of control | dose: 200.0 mg/kg/injection, schedule: Q01DX009 (ip), vehicle: saline with Tween-80 109 % of control | dose: 400.0 mg/kg/injection, schedule: Q01DX009 (ip), vehicle: saline with Tween-80 115 % of control

CSc1ncc(Br)c(C(=O)O)n1
inactive: dose: 100.0 mg/kg/injection, schedule: Q04DX003 (ip), vehicle: saline with Tween-80 100 % of control | dose: 200.0 mg/kg/injection, schedule: Q04DX003 (ip), vehicle: saline with Tween-80 100 % of control | dose: 400.0 mg/kg/injection, schedule: Q04DX003 (ip), vehicle: saline with Tween-80 100 % of control

O=C(Nc1ccc(Cl)c(Cl)c1)Oc1ccccc1Cl
inactive: [7] 106 % of control | [8] 107 % of control | [9] 105 % of control

N=C1C=CC(=C(c2ccc(N)cc2)c2ccc(N)cc2)C=C1
inactive: dose: 6.25 mg/kg/injection, schedule: Q01DX005 (ip), vehicle: saline with Tween-80 98 % of control | dose: 12.5 mg/kg/injection, schedule: Q01DX005 (ip), vehicle: saline with Tween-80 98 % of control

CN(C)CCNc1cccc2c1C(=O)c1cccc(NCCN(C)C)c1C2=O
inactive: dose: 1.88 mg/kg/injection, schedule: Q01DX009 (ip), vehicle: water 99 % of control | dose: 3.75 mg/kg/injection, schedule: Q01DX009 (ip), vehicle: saline 101 % of control | dose: 3.75 mg/kg/injection, schedule: Q01DX009 (ip), vehicle: water 98 % of control | dose: 7.5 mg/kg/injection, schedule: Q01DX009 (ip), vehicle: saline 102 % of control | dose: 7.5 mg/kg/injection, schedule: Q01DX009 (ip), vehicle: water 110 % of control | dose: 15.0 mg/kg/injection, schedule: Q01DX009 (ip), vehicle: saline 98 % of control | dose: 15.0 mg/kg/injection, schedule: Q01DX009 (ip), vehicle: water 108 % of control | dose: 30.0 mg/kg/injection, schedule: Q01DX009 (ip), vehicle: water 106 % of control

CC1CCC2CCCCN2CO1 (stereo not drawn)
inactive: dose: 25.0 mg/kg/injection, schedule: Q01DX005 (ip), vehicle: Klucel (hydroxypropylcellulose) (HPC) 105 % of control | dose: 50.0 mg/kg/injection, schedule: Q01DX005 (ip), vehicle: Klucel (hydroxypropylcellulose) (HPC) 101 % of control and 122 % of control and 96 % of control | dose: 100.0 mg/kg/injection, schedule: Q01DX005 (ip), vehicle: Klucel (hydroxypropylcellulose) (HPC) 101 % of control and 109 % of control and 112 % of control | dose: 200.0 mg/kg/injection, schedule: Q01DX005 (ip), vehicle: Klucel (hydroxypropylcellulose) (HPC) 104 % of control and 114 % of control and 118 % of control

C[N+](C)(C)CCOP(=O)([O-])OC1CCCC1
inactive: dose: 50.0 mg/kg/injection, schedule: Q01DX009 (ip), vehicle: saline 103 % of control | dose: 100.0 mg/kg/injection, schedule: Q01DX009 (ip), vehicle: saline 100 % of control | dose: 200.0 mg/kg/injection, schedule: Q01DX009 (ip), vehicle: saline 105 % of control

CCn1c2ccccc2c2cc(NC(=O)Nc3ccc4c(c3)c3ccccc3n4CC)ccc21
inactive: dose: 50.0 mg/kg/injection, schedule: Q01DX005 (ip), vehicle: saline with Tween-80 90 % of control | dose: 100.0 mg/kg/injection, schedule: Q01DX005 (ip), vehicle: saline with Tween-80 97 % of control | dose: 200.0 mg/kg/injection, schedule: Q01DX005 (ip), vehicle: saline with Tween-80 109 % of control

CCOC(=O)C(C)/C(C)=N\NC(N)=S (stereo not drawn)
inactive: dose: 60.0 mg/kg/injection, schedule: Q01DX005 (ip), vehicle: Klucel (hydroxypropylcellulose) (HPC) 100 % of control | dose: 120.0 mg/kg/injection, schedule: Q01DX005 (ip), vehicle: Klucel (hydroxypropylcellulose) (HPC) 100 % of control | dose: 240.0 mg/kg/injection, schedule: Q01DX005 (ip), vehicle: Klucel (hydroxypropylcellulose) (HPC) 100 % of control

N#Cc1ccc(NC(=O)Nc2ccc([N+](=O)[O-])cc2Cl)cc1
inactive: [7] 93 % of control | [8] 86 % of control | [9] 89 % of control and 92 % of control

CC1CCCCC12C(C#N)(C#N)C2(C#N)C#N (stereo not drawn)
inactive: dose: 12.5 mg/kg/injection, schedule: Q04DX003 (ip), vehicle: Klucel (hydroxypropylcellulose) (HPC) 101 % of control | dose: 25.0 mg/kg/injection, schedule: Q04DX003 (ip), vehicle: Klucel (hydroxypropylcellulose) (HPC) 102 % of control

NNC(=O)C(=O)Nc1ccc(F)cc1
inactive: [5] 96 % of control | [6] 100 % of control

CNc1ccc(Cl)cc1SSc1cc(Cl)ccc1NC
inactive: dose: 50.0 mg/kg/injection, schedule: Q01DX001 (ip), vehicle: Klucel (hydroxypropylcellulose) (HPC) 100 % of control | dose: 100.0 mg/kg/injection, schedule: Q01DX001 (ip), vehicle: Klucel (hydroxypropylcellulose) (HPC) 100 % of control | dose: 200.0 mg/kg/injection, schedule: Q01DX001 (ip), vehicle: Klucel (hydroxypropylcellulose) (HPC) 100 % of control

[C-]#[O+].[C-]#[O+].[C-]#[O+].[CH3][Sn]([c]1ccccc1)[c]1ccccc1.[W].[c-]1[c-][c-][cH-][c-]1
inactive: dose: 100.0 mg/kg/injection, schedule: Q04DX003 (ip), vehicle: saline 103 % of control | dose: 200.0 mg/kg/injection, schedule: Q04DX003 (ip), vehicle: saline 110 % of control | dose: 400.0 mg/kg/injection, schedule: Q04DX003 (ip), vehicle: saline 110 % of control

OCc1nc2ccccc2[nH]1
inactive: [1] 96 % of control | [2] 97 % of control | [3] 96 % of control | [4] 114 % of control

CC1(C)NN=C([N+](=O)[O-])C1c1ccccc1 (stereo not drawn)
inactive: [7] 107 % of control | [8] 111 % of control | [9] 107 % of control

CC1=C(c2ccccc2)CS1(=O)=O
inactive: dose: 100.0 mg/kg/injection, schedule: Q04DX002 (ip), vehicle: saline with Tween-80 101 % of control | dose: 200.0 mg/kg/injection, schedule: Q04DX002 (ip), vehicle: saline with Tween-80 99 % of control | dose: 400.0 mg/kg/injection, schedule: Q04DX002 (ip), vehicle: saline with Tween-80 110 % of control

CNCCc1c(C2C3C(C=C(C)CC3(C)C)c3c(CCNC)c4ccccc4n32)[nH]c2ccccc12 (stereo not drawn)
inactive: dose: 4.0 mg/kg/injection, schedule: Q01DX009 (ip), vehicle: saline 107 % of control | dose: 8.0 mg/kg/injection, schedule: Q01DX009 (ip), vehicle: saline 110 % of control | dose: 16.0 mg/kg/injection, schedule: Q01DX009 (ip), vehicle: saline 115 % of control | dose: 32.0 mg/kg/injection, schedule: Q01DX009 (ip), vehicle: saline 114 % of control
